# Where a name gives a salt, the structure may show the parent alone. Read-outs that look alike come from different tables or passages of the source.
# Key:
# Format in all cases: cell-based, human
# cancer cell lines = assay: Cell viability analysis (WST-1) on cancer cell lines; conditions: drug 10 μM, 72 hours, WST-1; Table 3
# [1] = tested on: A375 (Amelanotic Melanoma); assay: Cell viability analysis, skin cancer A375; conditions: Homo sapiens
# [2] = tested on: MCF7 (Mammary Gland, Adenocarcinoma); assay: Cell viability analysis, breast cancer MCF7; conditions: Homo sapiens
# [3] = tested on: TSGH-8301 (Urinary Bladder Carcinoma); assay: Cell viability analysis, bladder cancer TSGH-8301; conditions: Homo sapiens
# [4] = tested on: HeLa (Cervix Adenocarcinoma); assay: Cell viability analysis, cervical cancer HeLa; conditions: Homo sapiens, HeLa
# [5] = tested on: HI650 (Lung Adenocarcinoma); assay: Cell viability analysis, lung cancer HI650; conditions: Homo sapiens
# [6] = tested on: PC3 (p53−) (Prostate Adenocarcinoma); assay: Cell viability analysis, prostate cancer PC3; conditions: Homo sapiens
# [7] = tested on: HepG2 (Hepatocellular Carcinoma); assay: Cell viability analysis, hepatic cancer HepG2; conditions: Homo sapiens
# [8] = tested on: A549 (Lung Adenocarcinoma); assay: Cell viability analysis, lung cancer A549; conditions: Homo sapiens
# [9] = tested on: AGS (Gastric Adenocarcinoma); assay: Cell viability analysis, gastric cancer AGS; conditions: Homo sapiens
# [10] = tested on: HL-60 (Acute Promyelocytic Leukemia); assay: Cell viability analysis, leukemia HL-60; conditions: Homo sapiens
# [11] = tested on: MKN-45 (Gastric Adenocarcinoma); assay: Cell viability analysis, gastric cancer MKN-45; conditions: Homo sapiens
# [12] = tested on: LoVo (Colorectal Adenocarcinoma); assay: Cell viability analysis, colon cancer LoVo; conditions: Homo sapiens, LoVo
# [13] = A-375, 72 h, drug 10 μM, 72 hours, WST-1, OD450 nm, read-out: cell viability (survival rate), A375
# [14] = MCF7, 72 h, drug 10 μM, 72 hours, WST-1, OD450 nm, read-out: cell viability (survival rate), MCF7
# [15] = 72 h, drug 10 μM, 72 hours, WST-1, OD450 nm, read-out: cell viability (survival rate), TSGH
# [16] = 72 h, drug 10 μM, 72 hours, WST-1, OD450 nm, read-out: cell viability (survival rate), HeLa
# [17] = NCI-H1650, 72 h, drug 10 μM, 72 hours, WST-1, OD450 nm, read-out: cell viability (survival rate), H1650
# [18] = 72 h, drug 10 μM, 72 hours, WST-1, OD450 nm, read-out: cell viability (survival rate), PC3
# [19] = HepG2, 72 h, drug 10 μM, 72 hours, WST-1, OD450 nm, read-out: cell viability (survival rate), HepG2
# [20] = A549, 72 h, drug 10 μM, 72 hours, WST-1, OD450 nm, read-out: cell viability (survival rate), A549
# [21] = 72 h, drug 10 μM, 72 hours, WST-1, OD450 nm, read-out: cell viability (survival rate), AGS
# [22] = HL-60, 72 h, drug 10 μM, 72 hours, WST-1, OD450 nm, read-out: cell viability (survival rate), HL-60
# [23] = MKN-45, 72 h, drug 10 μM, 72 hours, WST-1, OD450 nm, read-out: cell viability (survival rate), MKN-45
# [24] = 72 h, read-out: cell viability (survival rate), LoVo, drug 10 μM, 72 hours, WST-1, OD450 nm
# [25] = A-375, 72 h, read-out: cell viability (survival rate), A375, drug 10 μM, 72 hours, WST-1, OD450 nm
# [26] = MCF7, 72 h, read-out: cell viability (survival rate), MCF7, drug 10 μM, 72 hours, WST-1, OD450 nm
# [27] = 72 h, read-out: cell viability (survival rate), TSGH, drug 10 μM, 72 hours, WST-1, OD450 nm
# [28] = 72 h, read-out: cell viability (survival rate), HeLa, drug 10 μM, 72 hours, WST-1, OD450 nm
# [29] = NCI-H1650, 72 h, read-out: cell viability (survival rate), H1650, drug 10 μM, 72 hours, WST-1, OD450 nm
# [30] = 72 h, read-out: cell viability (survival rate), PC3, drug 10 μM, 72 hours, WST-1, OD450 nm
# [31] = HepG2, 72 h, read-out: cell viability (survival rate), HepG2, drug 10 μM, 72 hours, WST-1, OD450 nm
# [32] = A549, 72 h, read-out: cell viability (survival rate), A549, drug 10 μM, 72 hours, WST-1, OD450 nm
# [33] = 72 h, read-out: cell viability (survival rate), AGS, drug 10 μM, 72 hours, WST-1, OD450 nm
# [34] = HL-60, 72 h, read-out: cell viability (survival rate), HL-60, drug 10 μM, 72 hours, WST-1, OD450 nm
# [35] = MKN-45, 72 h, read-out: cell viability (survival rate), MKN-45, drug 10 μM, 72 hours, WST-1, OD450 nm
Compound,inhibition effect on different cancer cell lines (cancer cell lines),"viability at 10 µM [1, 13]","viability at 10 µM [2, 14]","viability at 10 µM [3, 15]","viability at 10 µM [4, 16]","viability at 10 µM [5, 17]","viability at 10 µM [6, 18]","viability at 10 µM [7, 19]","viability at 10 µM [12, 24]","viability at 10 µM [1, 25]","viability at 10 µM [2, 26]","viability at 10 µM [3, 27]","viability at 10 µM [4, 28]","viability at 10 µM [5, 29]","viability at 10 µM [6, 30]","viability at 10 µM [7, 31]","viability at 10 µM [8, 32]","viability at 10 µM [9, 33]","viability at 10 µM [10, 34]","viability at 10 µM [11, 35]",further results
CCOc1ccc2nc3cc(N)ccc3c(N)c2c1 [Ethacridine lactate monohydrate],significant inhibition effect,40.1%,68.7%,46.8%,39.9%,52.5%,64.6%,65.5%,50.1%,,,,,,,,,,,,"viability at 10 µM [8, 20]: 75.1%; viability at 10 µM [9, 21]: 38.2%; viability at 10 µM [10, 22]: 44.1%; viability at 10 µM [11, 23]: 49.7%"
CCc1cc(C(N)=S)ccn1 [Ethionamide],significant inhibition effect,,,,,,,,86.5%,76.6%,36.4%,53.2%,44.8%,78.3%,85.3%,97.7%,42.4%,53.7%,102%,45.4%,
"COC(=O)Nc1nc2ccc(Sc3ccccc3)cc2[nH]1 [Fenbendazole (Panacur), Fenbendazole]",significant inhibition effect,,,,,,,,52.9%,40.6%,55.8%,27.2%,38.6%,60.2%,42%,76.1%,40.9%,29.9%,66.6%,40.3%,
"Nc1[nH]c(=O)ncc1F [Flucytosine (Ancobon), Flucytosine]",significant inhibition effect,,,,,,,,108%,102%,75.3%,93.9%,80.9%,92.1%,108%,93.2%,91.4%,70.7%,102%,72.9%,
"CC1(C)O[C@@H]2C[C@H]3[C@@H]4C[C@H](F)C5=CC(=O)C=C[C@]5(C)[C@@]4(F)[C@@H](O)C[C@]3(C)[C@]2(C(=O)CO)O1 [Fluocinolone acetonide (Flucort-N), Fluocinolone acetonide]",significant inhibition effect,45.8%,54.2%,38.3%,46%,58.4%,40.7%,74.5%,52.3%,,,,,,,,,,,,"viability at 10 µM [8, 20]: 52.5%; viability at 10 µM [9, 21]: 30%; viability at 10 µM [10, 22]: 116%; viability at 10 µM [11, 23]: 34.9%"
O=C1OC(CN2CCOCC2)CN1/N=C/c1ccc([N+](=O)[O-])o1 (stereo not shown) [Furaltadone HCl],significant inhibition effect,,,,,,,,62.2%,66%,103%,81.3%,64%,83.1%,99.2%,83.2%,67.9%,68.2%,64.6%,72.6%,
Nc1nc(O)c2ncn(COC(CO)CO)c2n1 [Ganciclovir],significant inhibition effect,,,,,,,,99.9%,94.8%,68.6%,103%,107%,97.3%,71.8%,109%,104%,106%,98.7%,87%,
COc1c(N2CCNC(C)C2)c(F)cc2c(=O)c(C(=O)O)cn(C3CC3)c12 (stereo not shown) [Gatifloxacin],significant inhibition effect,63.3%,130%,65%,84.1%,47.2%,82.2%,65.6%,98.3%,,,,,,,,,,,,"viability at 10 µM [8, 20]: 96%; viability at 10 µM [9, 21]: 71.4%; viability at 10 µM [10, 22]: 100%; viability at 10 µM [11, 23]: 84.2%"
"Clc1ccc(C(Cn2ccnc2)OCc2c(Cl)cccc2Cl)c(Cl)c1 (stereo not shown) [Isoconazole nitrate (Travogen), Isoconazole nitrate]",significant inhibition effect,,,,,,,,,,,,,,,,,,,,"viability at 10 µM ([1]; A-375, drug 10 μM, 72 hours, WST-1, OD450 nm, read-out: cell viability (survival rate), A375): 95%; viability at 10 µM ([2]; MCF7, drug 10 μM, 72 hours, WST-1, OD450 nm, read-out: cell viability (survival rate), MCF7): 95.1%; viability at 10 µM ([3]; drug 10 μM, 72 hours, WST-1, OD450 nm, read-out: cell viability (survival rate), TSGH): 88.2%; viability at 10 µM ([4]; drug 10 μM, 72 hours, WST-1, OD450 nm, read-out: cell viability (survival rate), HeLa): 165%; viability at 10 µM ([5]; NCI-H1650, drug 10 μM, 72 hours, WST-1, OD450 nm, read-out: cell viability (survival rate), H1650): 102%; viability at 10 µM ([6]; drug 10 μM, 72 hours, WST-1, OD450 nm, read-out: cell viability (survival rate), PC3): 82.5%; viability at 10 µM ([7]; HepG2, drug 10 μM, 72 hours, WST-1, OD450 nm, read-out: cell viability (survival rate), HepG2): 99.4%; viability at 10 µM ([8]; A549, drug 10 μM, 72 hours, WST-1, OD450 nm, read-out: cell viability (survival rate), A549): 91.7%; viability at 10 µM ([9]; drug 10 μM, 72 hours, WST-1, OD450 nm, read-out: cell viability (survival rate), AGS): 74.8%; viability at 10 µM ([10]; HL-60, drug 10 μM, 72 hours, WST-1, OD450 nm, read-out: cell viability (survival rate), HL-60): 49.2%; viability at 10 µM ([11]; MKN-45, drug 10 μM, 72 hours, WST-1, OD450 nm, read-out: cell viability (survival rate), MKN-45): 126%; viability at 10 µM ([12]; drug 10 μM, 72 hours, WST-1, OD450 nm, read-out: cell viability (survival rate), LoVo): 102%"
"NNC(=O)c1ccncc1 [Isoniazid (Tubizid), Isoniazid]",significant inhibition effect,54.9%,44.7%,42.2%,77.9%,64.7%,39.6%,110%,71%,,,,,,,,,,,,"viability at 10 µM [8, 20]: 45.7%; viability at 10 µM [9, 21]: 50.5%; viability at 10 µM [10, 22]: 102%; viability at 10 µM [11, 23]: 44.6%"

# From patent publication US10105357B2, “Indication of antibiotic drugs for preparation of cancer inhibition pharmaceutical composition” (LAUNX BIOMEDICAL CO., LTD., priority 2014, dated 2018)
